ChEMBL document CHEMBL5465560, “Selectivity Literature for EUbOPEN Chemogenomic Library” (2024)

Tests used:
[1] = molecular target: AP2-associated protein kinase 1 (Homo sapiens, UniProt Q2M2I8); settings: at 10 µM
[2] = molecular target: T1, Protein arginine N-methyltransferase 9 (Homo sapiens) (UniProt Q6P2P2); test: Selectivity interaction (Methyltransferase screen (Scintillation proximity assays)) EUB0000255b PRMT9
T1 sequence (whole entry): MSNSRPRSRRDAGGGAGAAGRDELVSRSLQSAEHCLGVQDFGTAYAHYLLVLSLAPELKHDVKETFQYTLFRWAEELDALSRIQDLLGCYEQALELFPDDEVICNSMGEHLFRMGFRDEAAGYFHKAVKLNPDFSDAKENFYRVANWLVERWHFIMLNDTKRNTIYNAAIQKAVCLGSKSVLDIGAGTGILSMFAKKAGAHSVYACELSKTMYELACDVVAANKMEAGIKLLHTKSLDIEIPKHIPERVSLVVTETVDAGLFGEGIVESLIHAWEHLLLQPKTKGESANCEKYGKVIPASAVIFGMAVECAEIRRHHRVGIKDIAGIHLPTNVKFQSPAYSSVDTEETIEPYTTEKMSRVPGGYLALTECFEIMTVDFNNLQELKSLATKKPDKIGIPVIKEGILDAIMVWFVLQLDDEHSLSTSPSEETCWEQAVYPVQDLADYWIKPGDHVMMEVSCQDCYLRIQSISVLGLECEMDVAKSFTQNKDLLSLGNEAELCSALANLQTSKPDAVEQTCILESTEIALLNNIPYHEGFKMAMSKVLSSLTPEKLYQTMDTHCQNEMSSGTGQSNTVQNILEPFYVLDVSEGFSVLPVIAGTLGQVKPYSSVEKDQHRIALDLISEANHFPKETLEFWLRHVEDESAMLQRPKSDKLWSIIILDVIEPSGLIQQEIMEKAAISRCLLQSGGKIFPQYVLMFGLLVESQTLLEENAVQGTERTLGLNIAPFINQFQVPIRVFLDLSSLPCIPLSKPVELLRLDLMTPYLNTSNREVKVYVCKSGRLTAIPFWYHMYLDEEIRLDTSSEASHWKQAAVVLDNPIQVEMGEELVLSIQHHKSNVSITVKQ

[3] = molecular target: MAP kinase-interacting serine/threonine-protein kinase 1 (Homo sapiens) (UniProt Q9BUB5); test: Selectivity interaction (KinomeScan (DiscoverX)) EUB0000092b MKNK1; settings: at 10 µM
Chain of MAP kinase-interacting serine/threonine-protein kinase 1 (Homo sapiens) (Q9BUB5 whole entry, looked up): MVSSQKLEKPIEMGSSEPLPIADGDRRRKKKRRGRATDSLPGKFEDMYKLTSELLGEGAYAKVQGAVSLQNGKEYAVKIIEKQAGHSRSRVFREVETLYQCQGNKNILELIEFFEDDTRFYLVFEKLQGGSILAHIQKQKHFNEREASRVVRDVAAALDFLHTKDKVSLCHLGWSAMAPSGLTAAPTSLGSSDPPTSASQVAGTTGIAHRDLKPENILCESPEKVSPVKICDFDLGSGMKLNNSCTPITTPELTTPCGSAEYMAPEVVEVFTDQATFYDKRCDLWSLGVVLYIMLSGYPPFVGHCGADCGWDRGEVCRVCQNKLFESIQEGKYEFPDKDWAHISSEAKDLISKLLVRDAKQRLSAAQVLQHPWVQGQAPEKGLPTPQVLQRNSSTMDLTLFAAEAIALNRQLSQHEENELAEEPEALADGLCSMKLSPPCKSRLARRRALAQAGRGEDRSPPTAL

[4] = molecular target: T2, Serine/threonine-protein kinase STK11 (Homo sapiens) (UniProt Q15831); test: Selectivity interaction (KinomeScan (DiscoverX)) EUB0000092b STK11; settings: at 10 µM
T2 sequence (whole entry): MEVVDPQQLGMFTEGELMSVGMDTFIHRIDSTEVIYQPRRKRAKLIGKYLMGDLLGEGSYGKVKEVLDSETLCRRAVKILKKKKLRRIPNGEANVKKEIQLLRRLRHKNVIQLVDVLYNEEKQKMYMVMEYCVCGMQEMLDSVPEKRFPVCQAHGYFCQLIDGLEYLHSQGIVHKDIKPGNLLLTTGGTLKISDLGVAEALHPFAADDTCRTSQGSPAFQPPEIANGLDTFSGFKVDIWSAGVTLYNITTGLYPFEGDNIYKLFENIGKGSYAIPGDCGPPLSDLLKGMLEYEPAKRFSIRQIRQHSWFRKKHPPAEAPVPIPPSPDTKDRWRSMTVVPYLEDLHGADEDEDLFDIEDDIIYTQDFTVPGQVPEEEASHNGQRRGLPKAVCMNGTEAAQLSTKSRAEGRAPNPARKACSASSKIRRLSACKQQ

[5] = molecular target: T3, Serine/threonine-protein kinase NLK (Homo sapiens) (UniProt Q9UBE8); test: Selectivity interaction (KinomeScan (DiscoverX)) EUB0000655a NLK; settings: at 10 µM
T3 sequence (whole entry): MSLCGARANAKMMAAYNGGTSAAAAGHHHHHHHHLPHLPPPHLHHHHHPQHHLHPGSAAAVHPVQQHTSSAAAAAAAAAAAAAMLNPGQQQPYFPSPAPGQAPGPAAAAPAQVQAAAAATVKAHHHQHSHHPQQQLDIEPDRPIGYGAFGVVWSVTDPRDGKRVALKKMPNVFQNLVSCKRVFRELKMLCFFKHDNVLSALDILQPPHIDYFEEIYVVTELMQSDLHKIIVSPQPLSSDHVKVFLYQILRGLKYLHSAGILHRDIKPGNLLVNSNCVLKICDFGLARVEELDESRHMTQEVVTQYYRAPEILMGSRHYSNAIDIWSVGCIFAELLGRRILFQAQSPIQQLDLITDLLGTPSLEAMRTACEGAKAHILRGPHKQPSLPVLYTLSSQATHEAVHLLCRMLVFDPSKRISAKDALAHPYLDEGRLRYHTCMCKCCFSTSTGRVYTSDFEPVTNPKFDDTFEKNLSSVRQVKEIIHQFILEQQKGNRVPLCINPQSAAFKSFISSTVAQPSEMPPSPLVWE

[6] = molecular target: Dual specificity protein kinase CLK4 (Homo sapiens, UniProt Q9HAZ1); test: Selectivity interaction (ProQinase) EUB0000171b CLK4
Chain of Dual specificity protein kinase CLK4 (Q9HAZ1 whole entry, looked up): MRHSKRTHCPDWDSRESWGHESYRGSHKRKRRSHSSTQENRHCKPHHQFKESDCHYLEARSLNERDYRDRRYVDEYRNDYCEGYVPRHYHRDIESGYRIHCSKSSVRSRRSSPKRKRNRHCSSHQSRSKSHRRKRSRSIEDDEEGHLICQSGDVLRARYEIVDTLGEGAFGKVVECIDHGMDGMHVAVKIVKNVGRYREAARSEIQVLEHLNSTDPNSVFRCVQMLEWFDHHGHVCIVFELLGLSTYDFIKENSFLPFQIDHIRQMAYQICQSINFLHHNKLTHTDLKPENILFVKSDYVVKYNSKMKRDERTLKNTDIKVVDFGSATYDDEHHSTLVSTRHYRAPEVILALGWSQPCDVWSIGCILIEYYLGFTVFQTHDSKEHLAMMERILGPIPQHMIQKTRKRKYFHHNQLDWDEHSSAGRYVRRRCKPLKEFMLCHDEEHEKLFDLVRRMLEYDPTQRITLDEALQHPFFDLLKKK

[7] = molecular target: T2, Serine/threonine-protein kinase STK11 (Homo sapiens); test: Selectivity interaction (KinomeScan (DiscoverX)) EUB0001049a STK11; settings: at 1 µM
[8] = molecular target: Serine/threonine-protein kinase pim-1 (Homo sapiens, UniProt P11309); test: Selectivity interaction (KinomeScan (DiscoverX)) EUB0000618a PIM1; settings: at 10 µM
Chain of Serine/threonine-protein kinase pim-1 (P11309 whole entry, looked up): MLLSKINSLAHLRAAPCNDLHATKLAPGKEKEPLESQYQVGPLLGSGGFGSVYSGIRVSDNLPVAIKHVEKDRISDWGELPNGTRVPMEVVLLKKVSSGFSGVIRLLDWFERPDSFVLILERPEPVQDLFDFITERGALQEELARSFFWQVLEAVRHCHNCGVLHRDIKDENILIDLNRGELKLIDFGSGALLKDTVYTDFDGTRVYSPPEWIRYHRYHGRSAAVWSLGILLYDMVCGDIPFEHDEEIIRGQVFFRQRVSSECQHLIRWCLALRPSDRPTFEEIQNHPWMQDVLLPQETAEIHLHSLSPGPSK

[9] = molecular target: T4, Inhibitor of nuclear factor kappa-B kinase subunit epsilon (Homo sapiens) (UniProt Q14164); test: Selectivity interaction (KinomeScan (DiscoverX)) EUB0000618a IKBKE; settings: at 10 µM
T4 sequence (whole entry): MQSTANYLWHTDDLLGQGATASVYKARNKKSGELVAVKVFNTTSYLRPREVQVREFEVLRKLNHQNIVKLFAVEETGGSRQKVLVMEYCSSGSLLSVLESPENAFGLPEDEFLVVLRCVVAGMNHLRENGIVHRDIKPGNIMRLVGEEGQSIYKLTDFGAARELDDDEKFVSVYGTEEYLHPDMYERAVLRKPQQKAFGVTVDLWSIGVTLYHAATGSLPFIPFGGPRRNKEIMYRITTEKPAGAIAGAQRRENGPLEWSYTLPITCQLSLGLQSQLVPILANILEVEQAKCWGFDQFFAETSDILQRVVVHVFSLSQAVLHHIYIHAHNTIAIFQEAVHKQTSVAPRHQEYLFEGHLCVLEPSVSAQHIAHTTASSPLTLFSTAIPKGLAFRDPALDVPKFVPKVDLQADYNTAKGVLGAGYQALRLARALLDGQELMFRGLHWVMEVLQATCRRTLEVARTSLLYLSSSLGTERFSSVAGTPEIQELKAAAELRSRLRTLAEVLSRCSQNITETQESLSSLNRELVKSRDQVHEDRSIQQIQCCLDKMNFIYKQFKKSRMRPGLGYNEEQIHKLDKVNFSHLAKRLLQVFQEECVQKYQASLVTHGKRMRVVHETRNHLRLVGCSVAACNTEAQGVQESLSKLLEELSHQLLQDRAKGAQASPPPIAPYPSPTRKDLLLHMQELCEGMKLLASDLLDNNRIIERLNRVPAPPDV

Chain of AP2-associated protein kinase 1 (Q2M2I8 whole entry, looked up): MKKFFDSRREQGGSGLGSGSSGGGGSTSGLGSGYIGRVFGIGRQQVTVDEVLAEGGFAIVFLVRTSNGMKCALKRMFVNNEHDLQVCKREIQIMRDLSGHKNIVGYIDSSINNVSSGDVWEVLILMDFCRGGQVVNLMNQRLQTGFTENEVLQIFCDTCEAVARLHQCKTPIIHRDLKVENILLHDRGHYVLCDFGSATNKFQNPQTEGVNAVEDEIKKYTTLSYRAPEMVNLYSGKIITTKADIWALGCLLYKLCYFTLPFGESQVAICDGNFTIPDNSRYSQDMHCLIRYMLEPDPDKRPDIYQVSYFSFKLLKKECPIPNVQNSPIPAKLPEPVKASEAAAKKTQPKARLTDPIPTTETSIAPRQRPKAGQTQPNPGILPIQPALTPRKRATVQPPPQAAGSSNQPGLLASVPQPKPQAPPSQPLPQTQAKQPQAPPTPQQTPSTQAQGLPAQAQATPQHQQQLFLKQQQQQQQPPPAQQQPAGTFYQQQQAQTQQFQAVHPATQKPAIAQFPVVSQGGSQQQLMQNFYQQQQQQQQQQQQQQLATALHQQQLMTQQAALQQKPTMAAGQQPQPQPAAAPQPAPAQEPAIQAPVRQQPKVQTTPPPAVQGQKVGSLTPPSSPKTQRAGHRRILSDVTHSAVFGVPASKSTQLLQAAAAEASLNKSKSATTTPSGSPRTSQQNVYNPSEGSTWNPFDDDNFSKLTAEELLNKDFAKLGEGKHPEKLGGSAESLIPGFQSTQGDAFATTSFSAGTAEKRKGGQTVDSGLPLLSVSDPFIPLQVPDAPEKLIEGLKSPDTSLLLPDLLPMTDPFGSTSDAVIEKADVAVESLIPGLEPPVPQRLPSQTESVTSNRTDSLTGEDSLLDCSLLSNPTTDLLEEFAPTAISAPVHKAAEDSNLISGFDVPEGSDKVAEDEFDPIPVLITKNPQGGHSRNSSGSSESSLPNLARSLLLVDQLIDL

CCN(CC)CCCCNc1ncc2cc(-c3cc(OC)cc(OC)c3)c(NC(=O)NC(C)(C)C)nc2n1
% of control [1]: 100%

COCCN1CCC(c2cc(CN(C)C(=O)c3cccc(Oc4ccccc4)c3)ccn2)CC1
% activity ([2]; at 1 µM): 90% | % activity ([2]; at 10 µM): > 90%

CCC(=O)N1CCN(c2ccc(-n3c(=O)ccc4cnc5ccc(-c6cnc7ccccc7c6)cc5c43)cc2C(F)(F)F)CC1
% of control [3]: 44% | % of control [4]: 100%

CN(C)CCOc1ccc(-c2nc(-c3ccncc3)c(-c3ccc4c(c3)CC/C4=N\O)[nH]2)cc1
% of control [5]: 90%

C=CC(=O)Nc1cccc(C(=O)Nc2ccc(Nc3cc(-c4[nH]c(SC)nc4C)ccn3)cc2)c1
% of control ([6]; at 1 µM): 46% | % of control ([6]; at 5 µM): 20%

COc1cc(Nc2nc(C)cc(-c3cnn4nc(OC)ccc34)n2)cc(C(F)(F)F)c1
% of control [7]: 100%

O[C@H]1CC[C@H](Nc2ncc3nc(Nc4c(F)cc(F)cc4F)n([C@H]4CCOC4)c3n2)CC1
% of control [8]: 100% | % of control [9]: 85%
